The source of these data is patent publication US20210371459A1, “DIMERIC PEPTIDE INHIBITORS OF APOPTOSIS PROTEINS” (Hepagene Therapeutics (HK) Limited, priority 2017, published 2021).

Holding throughout (settings): FP, probe AbuRPFK-5FAM, 60 min at 25° C.
In assay [1] the target is T1, XIAP-BIR3 (Homo sapiens, UniProt P98170).
T1 construct: purchased Reaction Biology APT-11-374
The experiment in a line: XIAP-BIR3 fluorescence polarization binding assay. The text has this: (§1) IAPs are one main cause of cancer development and may result from overexpression of anti-apoptotic proteins. This protocol establishes three binding assays for XIAP Bir3 domain, cIAP1 and cIAP2 using FP (Fluorescence polarization) technology. The fluorescence probe used is a synthetic peptide conjugated to 5-carboxyfluorescein (AbuRPFK-5FAM). The fluorescence polarization value (mP) was detected by Envision, which was used to reflect the binding degree of protein and fluorescent marker. Reagents and equipment used in the assay are listed below, followed by the protocol.
(§2) • a) Prepare 100 times of the final cpd concentration in appropriate tube and transfer 5 uL compound (“cpd”) to 45 μL 1× reaction buffer with 10% DMSO. • b) The final reference cpd concentration is 10000, 3333.3, 1111.1, 370.4, 123.4, 41.2, 13.7, 4.57, 1.52, 0.51, 0.17 and 0 nM. So the 100 times of the concentration is 1000, 333.3, 111.1, 37.04, 12.34, 4.12, […], 0.15, 0.05, 0.017 and 0 μM. The final test cpds concentration is 3333.3, 1111.1, 370.4, 123.4, 41.2, 13.7, 4.57, 1.52, 0.51, 0.17, 0.057 and 0 nM. So the 100 times of the concentration is 333.3, 111.1, 37.04, 12.34, 4.12, […], 0.15, 0.05, 0.017, 0.0057 and 0 μM • c) Add 8 μL/well each dose enzyme to 384 well microplate (ProxiPlate-384 F Plus, 6008260) using multichannel pipette, prepared in step 2.1.1.2 • d) Centrifuge at 1000 rpm. • e) Add 2 μL/well cpd to 384 well microplate (ProxiPlate-384 F Plus, 6008260) using multichannel pipette, prepared in step a). • f) Centrifuge at 1000 rpm. RT, 15 min. • g) Start the assay by adding 10 uL/well substrate (prepared in step 2.1.1.3) to the same 384 well microplate using multichannel pipette • h) Centrifuge at 1000 rpm. • i) Cover the assay plate and incubate for 60 min at 25° C. • j) Read on Envision 2104 for mP and plot the IC50s with mP values. • k) Data analysis: IC50s were determined based on a non-linear regression analysis of data collected.

Assay [2] concerns the target T2, cIAP2-BIR3 (Homo sapiens, UniProt Q13489).
T2 construct: cIAP2-BIR3; Reaction Biology; APT-11-372; purchased Reaction Biology APT-11-372
As to the kind of experiment: cIAP2-BIR3 fluorescence polarization binding assay.
Excerpt: as §1, §2

The target of assay [3] is T3, cIAP1-BIR3 (Homo sapiens, UniProt Q13490).
T3 construct: cIAP1-BIR3; Reaction Biology; APT-11-370; purchased Reaction Biology APT-11-370
T3 sequence (Q13490 253-363 limits assumed): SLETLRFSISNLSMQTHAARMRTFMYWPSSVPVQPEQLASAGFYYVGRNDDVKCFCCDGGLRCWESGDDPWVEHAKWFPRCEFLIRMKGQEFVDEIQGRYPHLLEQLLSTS
As to the kind of experiment: cIAP1-BIR3 fluorescence polarization binding assay.
Excerpt: as §1, §2

T1 sequence (P98170 241-356 limits assumed): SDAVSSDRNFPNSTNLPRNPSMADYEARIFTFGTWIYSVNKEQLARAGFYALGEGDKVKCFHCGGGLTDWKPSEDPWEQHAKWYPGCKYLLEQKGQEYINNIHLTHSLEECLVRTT
T2 sequence (Q13489 238-349 limits assumed): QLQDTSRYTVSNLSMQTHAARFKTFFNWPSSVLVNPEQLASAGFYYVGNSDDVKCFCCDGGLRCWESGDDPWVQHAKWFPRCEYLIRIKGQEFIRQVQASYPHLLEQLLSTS

Turning to `CN[C@@H](C)C(=O)N[C@H](C(=O)N1C[C@@H](OCCC(=O)N2CCN(C(=O)CCO[C@H]3C[C@@H](C(=O)N[C@@H]4CCCc5ccccc54)N(C(=O)[C@@H](NC(=O)[C@H](C)NC)C4CCCCC4)C3)CC2)C[C@H]1C(=O)N[C@@H]1CCCc2ccccc21)C1CCCCC1` [Compound IV, (2S,4S)-1-[(2S)-2-Cyclohexyl-2-[(2S)-2-(methylamino)propanamido]acetyl]-4-{3-[4-(3-{[(3S,5S)-1-[(2S)-2-cyclohexyl-2-[(2S)-2-(methylamino)propanamido]acetyl]-5-{[(1R)-1,2,3,4-tetrahydronaphthalen-1-yl]carbamoyl}pyrrolidin-3-yl]oxy}propanoyl)piperazin-1-yl]-3-oxopropoxy}-N-[(1R)-1,2,3,4-tetrahydronaphthalen-1-yl]pyrrolidine-2-carboxamide], the IC50 in assay [1] fell in the range of 10 to 100 nM; in assay [2], 10 to 100 nM; in assay [3], 0.1 to 10 nM.
Consider `CN[C@@H](C)C(=O)N[C@H](C(=O)N1C[C@@H](OCCCN2CCN(CCCO[C@H]3C[C@@H](C(=O)N[C@@H]4CCCc5ccccc54)N(C(=O)[C@@H](NC(=O)[C@H](C)NC)C(C)(C)C)C3)CC2)C[C@H]1C(=O)N[C@@H]1CCCc2ccccc21)C(C)(C)C` [Compound II-D, (2S,4S)-1-[(2S)-3,3-Dimethyl-2-[(2S)-2-(methylamino)propanamido]butanoyl]-4-[3-[4-(3-[[(3S,5S)-1-[(2S)-3,3-dimethyl-2-[(2S)-2-(methylamino)propanamido]butanoyl]-5-[[(1R)-1,2,3,4-tetrahydronaphthalen-1-yl]carbamoyl]pyrrolidin-3-yl]oxy]propyl)piperazin-1-yl]propoxy]-N-[(1R)-1,2,3,4-tetrahydronaphthalen-1-yl]pyrrolidine-2-carboxamide], for which the IC50 is 10 to 100 nM in assay [1], 10 to 100 nM in assay [2] and 0.1 to 10 nM in assay [3].
As to `CN[C@@H](C)C(=O)N[C@H](C(=O)N1C[C@@H](OCCCN2CCN(CCCO[C@H]3C[C@@H](C(=O)N[C@@H]4CCCc5ccccc54)N(C(=O)[C@@H](NC(=O)[C@H](C)NC)C4CC4)C3)CC2)C[C@H]1C(=O)N[C@@H]1CCCc2ccccc21)C1CC1` [Compound II-F, (2S,4S)-1-[(2S)-2-Cyclopropyl-2-[(2S)-2-(methylamino)propanamido]acetyl]-4-[3-[4-(3-[[(3S,5S)-1-[(2S)-2-cyclopropyl-2-[(2S)-2-(methylamino)propanamido]acetyl]-5-[[(1R)-1,2,3,4-tetrahydronaphthalen-1-yl]carbamoyl]pyrrolidin-3-yl]oxy]propyl)piperazin-1-yl]propoxy]-N-[(1R)-1,2,3,4-tetrahydronaphthalen-1-yl]pyrrolidine-2-carboxamide], the figures for the IC50 in assay [1], in assay [2] and in assay [3] were 100 to 1000 nM, 10 to 100 nM and 0.1 to 10 nM, respectively.
`CN[C@@H](C)C(=O)N[C@H](C(=O)N1C[C@@H](OCCCN2CCN(CCCO[C@H]3C[C@@H](C(=O)N[C@@H]4CCCc5ccccc54)N(C(=O)[C@@H](NC(=O)[C@H](C)NC)C(C)C)C3)CC2)C[C@H]1C(=O)N[C@@H]1CCCc2ccccc21)C(C)C` [Compound II-C, (2S,4S)-1-[(2S)-3-Methyl-2-[(2S)-2-(methylamino)propanamido]butanoyl]-4-{3-[4-(3-{[(3S,5S)-1-[(2S)-3-methyl-2-[(2S)-2-(methylamino)propanamido]butanoyl]-5-{[(1R)-1,2,3,4-tetrahydronaphthalen-1-yl]carbamoyl}pyrrolidin-3-yl]oxy}propyl)piperazin-1-yl]propoxy}-N-[(1R)-1,2,3,4-tetrahydronaphthalen-1-yl]pyrrolidine-2-carboxamide]: the IC50 in assay [1], in assay [2] and in assay [3] was 0.1 to 10 nM in each case.
Take `CN[C@@H](C)C(=O)N[C@H](C(=O)N1CCC[C@H]1C(=O)N[C@@H]1CCCc2c1cccc2N1CCN(c2cccc3c2CCC[C@H]3NC(=O)[C@@H]2CCCN2C(=O)[C@@H](NC(=O)[C@H](C)NC)C(C)C)CC1)C(C)C` [Compound I-C, (S)-1-((S)-3-Methyl-2-((S)-2-(methylamino)propanamido)butanoyl)-N—((R)-5-(4-((R)-5-((S)-1-((S)-3-methyl-2-((S)-2-(methylamino)propanamido)butanoyl)pyrrolidine-2-carboxamido)-5,6,7,8-tetrahydronaphthalen-1-yl)piperazin-1-yl)-1,2,3,4-tetrahydronaphthalen-1-yl)pyrrolidine-2-carboxamide]: the IC50 in assay [1] fell in the range of 10 to 100 nM; in assay [2], 10 to 100 nM; in assay [3] it was 0.1 to 10 nM.
`CN[C@@H](C)C(=O)N[C@H](C(=O)N1C[C@@H](OCCC(=O)N2CCN(C(=O)CCO[C@H]3C[C@@H](C(=O)N[C@@H]4CCCc5ccccc54)N(C(=O)[C@@H](NC(=O)[C@H](C)NC)C(C)C)C3)CC2)C[C@H]1C(=O)N[C@@H]1CCCc2ccccc21)C(C)C` [Compound IV-D, (2S, 4S)-1-[(2S)-3-Methyl-2-[(2S)-2-(methylamino)propanamido]butanoyl]-4-[3-[4-(3-[[(3S,5S)-1-[(2S)-3-methyl-2-[(2S)-2-(methylamino)propanamido]butanoyl]-5-[[(1R)-1,2,3,4-tetrahydronaphthalen-1-yl]carbamoyl]pyrrolidin-3-yl]oxy]propanoyl)piperazin-1-yl]-3-oxopropoxy]-N-[(1R)-1,2,3,4-tetrahydronaphthalen-1-yl]pyrrolidine-2-carboxamide]: the IC50 is 10 to 100 nM in assay [1], 10 to 100 nM in assay [2] and 0.1 to 10 nM in assay [3].
`CN[C@@H](C)C(=O)N[C@@H](C)C(=O)N1C[C@@H](OCCC(=O)N2CCN(C(=O)CCO[C@H]3C[C@@H](C(=O)N[C@@H]4CCCc5ccccc54)N(C(=O)[C@H](C)NC(=O)[C@H](C)NC)C3)CC2)C[C@H]1C(=O)N[C@@H]1CCCc2ccccc21` [Compound IV-A, (2S,4S)-1-[(2S)-2-[(2S)-2-(Methylamino)propanamido]propanoyl]-4-[3-[4-(3-[[(3S,5S)-1-[(2S)-2-[(2S)-2-(methylamino)propanamido]propanoyl]-5-[[(1R)-1,2,3,4-tetrahydronaphthalen-1-yl]carbamoyl]pyrrolidin-3-yl]oxy]propanoyl)piperazin-1-yl]-3-oxopropoxy]-N-[(1R)-1,2,3,4-tetrahydronaphthalen-1-yl]pyrrolidine-2-carboxamide]: the values for the IC50 in assay [1], in assay [2] and in assay [3] were 100 to 1000 nM, 10 to 100 nM and 0.1 to 10 nM, respectively.
The corresponding values for `CC[C@H](C)[C@H](NC(=O)[C@H](C)NC)C(=O)N1C[C@@H](OCCCN2CCN(CCCO[C@H]3C[C@@H](C(=O)N[C@@H]4CCCc5ccccc54)N(C(=O)[C@@H](NC(=O)[C@H](C)NC)[C@@H](C)CC)C3)CC2)C[C@H]1C(=O)N[C@@H]1CCCc2ccccc21` [Compound II-G, (2S,4S)-1-[(2S)-3-Methyl-2-[(2S)-2-(methylamino)propanamido]pentanoyl]-4-{3-[4-(3-{[(3S,5S)-1-[(2S)-3-methyl-2-[(2S)-2-(methylamino)propanamido]pentanoyl]-5-{[(1R)-1,2,3,4-tetrahydronaphthalen-1-yl]carbamoyl}pyrrolidin-3-yl]oxy}propyl)piperazin-1-yl]propoxy}-N-[(1R)-1,2,3,4-tetrahydronaphthalen-1-yl]pyrrolidine-2-carboxamide] are 0.1 to 10 nM, 0.1 to 10 nM and 0.1 to 10 nM.
The corresponding values for `CC[C@H](NC(=O)[C@H](C)NC)C(=O)N1C[C@@H](OCCCN2CCN(CCCO[C@H]3C[C@@H](C(=O)N[C@@H]4CCCc5ccccc54)N(C(=O)[C@H](CC)NC(=O)[C@H](C)NC)C3)CC2)C[C@H]1C(=O)N[C@@H]1CCCc2ccccc21` [Compound II-B, (2S,4S)-1-[(2S)-2-[(2S)-2-(Methylamino)propanamido]butanoyl]-4-{3-[4-(3-{[(3S,5S)-1-[(2S)-2-[(2S)-2-(methylamino)propanamido]butanoyl]-5-{[(1R)-1,2,3,4-tetrahydronaphthalen-1-yl]carbamoyl}pyrrolidin-3-yl]oxy}propyl)piperazin-1-yl]propoxy}-N-[(1R)-1,2,3,4-tetrahydronaphthalen-1-yl]pyrrolidine-2-carboxamide] are 10 to 100 nM, 0.1 to 10 nM and 0.1 to 10 nM.
